Experimental data from a melting point compilation (Tetko et al.; mined from patent text by program, amines drawn as free bases though some values may be those of a salt).

Row | melting point [°C] | Structure (SMILES)
1 | > 300 | Oc1nc2cc(Br)c3ccccc3c2nc1O
2 | 257 | Cc1cc(-c2ncn3c(C(F)(F)F)cc(-c4ccc(C(F)(F)F)cc4)nc23)ccn1
3 | 216 to 218 | COc1ncccc1NC(=O)[C@H]1[C@H](c2ccc(S(N)(=O)=O)cc2)C1(C)C (relative stereo)
4 | 132 to 133 | CCOC1CN(Cc2cc(OC)c(OC)c(OC)c2)Cc2cc(OC)c(OCc3ccccc3)cc21 (stereo not drawn)
5 | 72 to 73 | CCOc1ccc(S(=O)(=O)Cl)cc1OC
6 | 189 to 191 | CC(C)(C)OC(=O)N[C@@H]1C(=O)N(OCC(=O)OCc2ccc([N+](=O)[O-])cc2)[C@@H]1COC(N)=O
7 | 158 to 160 | Clc1cccc(Cl)c1C1=NC2(CO1)COC(c1ccccc1)OC2 (stereo not drawn)
8 | 96 to 99 | CCCN(CCC)C(=O)C(C)n1c(-c2ccc(Cl)cc2)nc2cccnc21 (stereo not drawn)
9 | 168 to 170 | CCCCc1nn(-c2ccccc2C(F)(F)F)c(=O)n1Cc1ccc(-c2ccccc2S(=O)(=O)NC(C)(C)C)cc1
10 | 183 | Cn1ccc2c1CCn1ncnc1C2=C1CCNCC1
11 | 81 to 82.5 | CCN(CC)C(=O)c1c(CO)cccc1[Si](C)(C)C
12 | 102 to 104 | CS(=O)(=O)N1C[C@H](S)C[C@H]1CSCc1ccccc1
13 | 201 to 203 | CCOC(=O)C=CNc1oc2ccc(CC)cc2c(=O)c1C=O
14 | 69 to 75 | CCCCC(=O)N(C(=O)NC(=O)c1ccccc1[N+](=O)[O-])c1ccc(Oc2ncc(Cl)cn2)c(C)c1
15 | 92 to 94 | CC(C)(C)NS(=O)(=O)c1sc([Si](C)(C)C)cc1C(F)=C(F)C(F)(F)F
16 | 69 to 71 | CCOC(=O)C(C)Oc1ncn(-c2ccc(C)cc2)n1 (stereo not drawn)
17 | 190 to 191 | Cc1ccc(C2c3c(C)c(N4CCN(c5ccccn5)CC4)c(C)c(C)c3OC2(C)C)cc1 (stereo not drawn)
18 | 214 to 215 | CC(C(=O)N1c2ccccc2N(C)C(=O)c2cnc(-c3ccccc3)nc21)N1CCCCC1 (stereo not drawn)
19 | 147 to 149 | O=C(O)CC1=C(c2ccccc2)c2ccccc2OC1
20 | 82 to 83 | C[C@@H](CO)NS(=O)(=O)c1ccccc1[N+](=O)[O-]
21 | 258 | c1cc2c(Nc3ccc4[nH]ncc4c3)ncnc2cn1
22 | 150 to 151 | CCn1nc(Cc2c(Cl)cncc2Cl)c2ccc(OC)cc2c1=O
23 | 198 to 200 | COc1cc(-c2nc3ccccc3[nH]2)cc([N+](=O)[O-])c1O
24 | 57 to 58 | CC(C)(C)c1ccc(C=C(SC(=Cc2ccc(C(C)(C)C)cc2)S(=O)(=O)c2ccccc2)S(=O)(=O)c2ccccc2)cc1

Row | melting point [°C] | Structure (SMILES)
25 | 111 to 113 | CN(CCN(O)C(N)=O)Cc1cccc(Oc2ccc(Cl)cc2)c1
26 | 192 to 193 | COC(=O)c1cc(=O)c2cc(OC)cc([N+](=O)[O-])c2o1
27 | > 210 | COc1ccnc2[nH]cc(C(C)=O)c12
28 | 135 to 142 | CC1(C)CC(=O)c2cc(O)ccc2S1
29 | 73 to 74 | CCCOc1c(OC)cc(N)c2ncccc12
30 | 296 | CN1CC=C(C(=O)N2c3ccccc3C(=O)Nc3cccc(Cl)c32)CC1
31 | 103 to 105 | COc1cccc2c1OC(SC)C2=O (stereo not drawn)
32 | 92 to 93 | COc1nc2ccccc2cc1C=O
33 | 244 to 246 | CCn1c(=O)n(-c2ccc(Oc3nc4cccnc4n3C)cc2)c2nccc(C(F)(F)F)c21
34 | 187 to 189 | COCCCn1c(CO)cc2c3c(c(-c4ccccc4Cl)cc21)C(=O)NC3=O
35 | 239 to 240 | OCC1OC(c2c(Cl)nc3cc(Cl)c(Cl)cn23)C(O)C1O (stereo not drawn)
36 | > 200 | O=C(c1ccc(-c2cnc3c(c2)N(Cc2cc(Cl)ccc2Cl)C(=O)CN3)cc1)N1CCC(N2CCCC2)CC1
37 | 217 to 218 | NS(=O)(=O)c1cc(CC(=O)C=CC(=O)O)ccc1Cl
38 | 267 to 270 | COc1ccc(-c2c(NC(=O)Nc3ccc(F)cc3F)c(=O)oc3ccc(Cl)cc23)cc1OC
39 | 185 to 187 | CC(NC(=O)OC(C)(C)C)C(=O)NC1CCN(c2c(F)cc3c(=O)c(C(=O)O)cn(C4CC4)c3c2F)C1 (stereo not drawn)
40 | 212 | COc1ccc(-c2nc3cc(F)ccc3s2)cc1OC(=O)c1cccc([N+](=O)[O-])c1
41 | 195 to 196 | NS(=O)(=O)c1ccc(S(=O)(=O)N2CCC(=O)CC2)cc1Cl
42 | 237 to 238 | CSc1nnc2c(=O)[nH]c(-c3ccccc3OCC(C)C)nc2n1
43 | 134 to 135 | CCOC(=O)c1ccc(CCNc2ncnc(CC)c2Cl)cc1
44 | 393 to 394 | CC(C)c1ccc(-n2nc(O)c3c(=O)c4ccc(Cl)cc4[nH]c3c2=O)cc1
45 | 76 to 77 | COC1OCC[C@@H]1NC(=O)[C@H](CC(C)C)NC(=O)[C@H](CC(C)C)NC(=O)OCc1ccccc1 (stereo partly drawn)
46 | 160 to 161 | COc1cccc(C(=O)NCC(=O)N2c3ccccc3N(Cc3ccccc3)C(=O)[C@H]3CCC[C@H]32)c1 (relative stereo)
47 | 235 to 236 | Oc1ccccc1C=Cc1nc2ccccc2s1
48 | 120 to 122 | CC(C)(C)OC(=O)N1CCC(c2ccc(N3C[C@H](CO)OC3=O)cc2F)CC1

Row | melting point [°C] | Structure (SMILES)
49 | 158 to 160 | CC(=O)NC[C@H]1CN(c2ccc(N3CCC(=C(C#N)C#N)CC3)c(F)c2)C(=O)O1
50 | 253 to 255 | NC(=O)c1ccc(N2CCN(Cc3cn4cc(Cl)ccc4n3)CC2)c(F)c1
51 | 93 to 95 | Cc1ccc(OCc2ccccc2)c(C(CCN2CC3(C)CC3(C)C2)c2ccccc2)c1 (stereo not drawn)
52 | 149 | CO[C@]1(c2cc(F)cc(S(=O)(=O)c3ccc(/C(C)=N/O)cc3)c2)CCO[C@@H](C)C1
53 | 102 to 103 | CC(Br)C(=O)NC(C)(C)c1ccccc1 (stereo not drawn)
54 | 147 to 148 | NC(=O)CNC(=O)c1cccc(-c2cccc3cc(Cc4cccc(C(F)(F)F)c4)sc23)c1
55 | 158 to 159 | COC(=O)c1cc2cc(NC(C)=O)ccc2o1
56 | 114 to 115 | CCN(COC)c1cc(-c2ccnc(Nc3cccc(Cl)c3)n2)ccn1
57 | 44 to 45 | CSc1ccc(CC#N)cc1
58 | 43 | CCCCCCCCCCc1cnc(-c2ccc(OCC(C)(C#N)CCCC)cc2)nc1 (stereo not drawn)
59 | 142 to 144 | COc1cc(COc2ccc(N)nn2)cc(OC)c1OC
60 | 153 | COc1cc(CS(=O)c2ccc(O)cc2)cc(OC)c1OC (stereo not drawn)
61 | 125 to 126 | Cc1oc(-c2ccccc2)nc1COc1ccc(COc2nn(Cc3ccccc3)cc2CCC(=O)O)cc1
62 | 186 to 187 | CCCCc1ncc(/C=C(\Cc2cccs2)C(=O)O)n1Cc1ccccc1OC
63 | 82 to 85 | Cc1ccc(I)c(CO)c1
64 | 121 to 122 | O=c1ccoc(C(O)c2ccccc2)c1OCc1ccccc1 (stereo not drawn)
65 | 125 to 126 | Cc1ccccc1-c1cccc(Nc2ccccc2)c1C#N
66 | 97 | CC1(C(=O)O)CCCCC1O (stereo not drawn)
67 | 246 to 247 | COc1ccccc1-n1c(=O)[nH]c2c(OC)cccc21
68 | 207 to 210 | CC(=O)Nc1ccc2c(c1)CCC(=CN(C)C)C2=O
69 | 163 to 164 | N#CCc1nnc(N)s1
70 | > 310 | COc1cc2nc(-c3n[nH]cc3NC(=O)N3CCCCC3)[nH]c2cc1Cl
71 | 160 to 161 | N#CCC(O)(c1ccc(Cl)cc1)c1ccc(-c2ccc(Br)cc2)cc1 (stereo not drawn)
72 | 151 to 154 | COc1ccc(C2CNC(=O)N2C(C)c2ccccc2)cc1OC1CC2CCC1C2 (stereo not drawn)

Row | melting point [°C] | Structure (SMILES)
73 | 118 | CCCCCCNc1nc(SC)[nH]c2nccc1-2
74 | 93 to 97 | CCCCCCCCCCCCCCCCC(C(=O)O)S(C)=O (stereo not drawn)
75 | 214 to 217 | O=C1c2ccccc2C(=O)N1CCCN1C(=O)C2(COc3cc4c(cc32)CCO4)c2ccccc21 (stereo not drawn)
76 | 119 to 120 | COc1cc(C)c(C(=O)c2c(O)ccc(Br)c2C)c(OC)c1OC
77 | 196 to 198 | O=c1oc(=O)n(-c2ccccc2)c2ncccc12
78 | 165 to 167 | COc1ccc(-c2c(Cl)c(COc3ccccn3)nc3sc4c(c23)CCN(Cc2ccccc2)C4)cc1OC
79 | 127 to 128 | CCOC(=O)Cc1c(-c2ccccc2)c2cc(C)c(C)cc2oc1=O
80 | 68 to 70 | CC(O)(CCC#N)c1ccc(Oc2ccc(Cl)cc2)cc1 (stereo not drawn)
81 | 205 to 207 | N#Cc1cc(-c2ccncc2)sc1-c1ccncc1
82 | 115 to 116 | O=C(NCCN1CCCC1)c1cccc(-c2cccc(OCCc3ccc(Cl)cc3Cl)n2)c1
83 | 217 | O=C1CCC(c2ccccc2)(c2ccccc2)[C@@H]2CN(C(=O)Cc3ccccc3Br)C[C@H]12 (racemic)
84 | 197 to 200 | COc1cc(OC)c(-c2cc3ccccc3[nH]2)cc1C=CC(=O)c1ccc(S(=O)(=O)NCCCn2ccnc2)cc1
85 | 238 to 240 | COc1cc(-c2nc(-n3ccnc3)c3c(C)c(C#N)sc3n2)cc(OC)c1OC
86 | 87.5 to 89 | CCN(CC)C(=O)c1nc(C)c(-c2ccncc2)s1
87 | 122 to 124 | O=C(Nc1ccc(-n2nc(C(F)(F)F)cc2C(F)(F)F)cc1)c1ccc(F)c(F)c1F
88 | 216 to 218 | CCOC(=O)c1ccc(NC(=O)C=CC=C(c2ccc(Cl)cc2)c2ccc(Cl)cc2)cc1
89 | 280 to 285 | NS(=O)(=O)c1ccc(NC(=O)Nc2ccc3c(c2)Cc2ccccc2-3)cc1
90 | > 290 | CN1CCc2c(F)c(F)c(N)c3c(=O)c(C(=O)O)cn1c23
91 | 222 to 225 | Cc1cc(C)c(Nc2nc(C)ccc2S(=O)(=O)c2ccc(C(=O)c3ccccc3)cc2)c(C)c1
92 | 176 to 179 | CNCCc1cc2c(cc1CC(=O)c1ccc(OC)c(OC)c1C(=O)O)OCO2
93 | 184 to 186 | Cc1c(C)c2c(c(C)c1O)CCC(C)(C1N[C@H](C(=O)O)CS1)O2 (stereo partly drawn)
94 | 152 to 154 | COC(=O)CCc1ccc(-n2c(C)c(C)[nH]c2=O)cc1
95 | 132 | O=C(CCc1nc(-c2ccccn2)no1)NC1CCN(Cc2ccc(Cl)c(F)c2)CC1
96 | 141 to 143 | O=C(Nc1ccc(Cl)c(Cl)c1)OCCCC(=O)c1ccccc1

Row | Structure (SMILES) | melting point [°C]
97 | Cc1ccc(Cn2cc(C(=O)C(=O)O)c3cc(-c4ccccc4)ccc32)cc1 | 195 to 196
98 | C[C@@H]1CNC[C@H](C)N1c1ncccn1 | 130 to 135
